We go through four compounds from publication PMC3447897 (Diabetes, 2012).

The target in experiment [1] is HLA-B7.2 (Homo sapiens, UniProt P01889). Nature of the experiment: HLA-B7 peptide binding affinity assay.
The test system of experiment [2] is epitope-specific TMr+CD8+ T cells. The note with it: median over 7 HLA-A2+ new-onset T1D patients; cited from earlier work.

Residues, ends and D or L forms follow the SMILES beside them.

Broadly, the Kd is the free concentration of one partner at which half of the binding sites on the other are occupied at equilibrium, for simple one-to-one binding. High values mean weaker binding, low ones tighter binding.

HLA-B7.2, sequence (P01889 25-299 limits assumed): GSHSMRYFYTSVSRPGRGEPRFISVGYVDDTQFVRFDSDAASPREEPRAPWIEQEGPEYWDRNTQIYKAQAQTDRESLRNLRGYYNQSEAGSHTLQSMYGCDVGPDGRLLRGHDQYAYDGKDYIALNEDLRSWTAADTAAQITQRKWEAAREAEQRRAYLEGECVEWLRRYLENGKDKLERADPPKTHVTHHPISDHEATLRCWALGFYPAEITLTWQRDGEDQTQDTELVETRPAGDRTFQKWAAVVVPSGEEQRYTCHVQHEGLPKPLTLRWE
HLA-B7.2, sequence (P61769 21-119 partner): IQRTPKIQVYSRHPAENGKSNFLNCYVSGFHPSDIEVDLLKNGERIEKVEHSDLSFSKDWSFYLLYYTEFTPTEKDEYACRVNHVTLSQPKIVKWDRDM

`CC[C@H](C)[C@H](NC(=O)[C@@H](NC(=O)[C@@H]1CCCN1C(=O)[C@H](C)N)C(C)C)C(=O)N[C@@H](CCCCN)C(=O)N[C@@H](C)C(=O)N[C@@H](CCCNC(=N)N)C(=O)N[C@@H](CCSC)C(=O)N[C@@H](CCSC)C(=O)O` [GAD530–538] (H-APVIKARMM-OH): in experiment [1], the dissociation constant Kd is 61 nM.

Take `CC(C)C[C@H](NC(=O)[C@H](C)NC(=O)[C@H](CC(C)C)NC(=O)[C@H](CC(C)C)NC(=O)[C@H](C)NC(=O)[C@H](CC(C)C)NC(=O)[C@H](CC(C)C)NC(=O)[C@@H]1CCCN1C(=O)[C@@H](N)CC(C)C)C(=O)O` [PPI8–16] (H-LPLLALLAL-OH): the Kd in experiment [1] amounted to 1090 nM.

As to `CC[C@H](C)[C@H](N)C(=O)N1CCC[C@H]1C(=O)N[C@@H](CO)C(=O)N[C@@H](CC(=O)O)C(=O)N[C@@H](CC(C)C)C(=O)N[C@@H](CCC(=O)O)C(=O)N[C@@H](CCCNC(=N)N)C(=O)N[C@@H](CCCNC(=N)N)C(=O)N[C@H](C(=O)N[C@@H](CC(C)C)C(=O)O)[C@@H](C)CC` [GAD311–320] (H-IPSDLERRIL-OH), the Kd in experiment [1] is 100 nM.

Turning to “PPI6–14: HLA-A2–restricted preproinsulin epitope used for comparison (RLLPLLALL; UniProt P01308 6-14, looked up, fragment)”, in experiment [2], the “percent of epitope-specific T cells expressing IFNG mRNA, HLA-A2–restricted” value was 60% and the “percent of epitope-specific T cells expressing TGFB mRNA, HLA-A2–restricted” value is recorded as 13%.
